According to patent US20210276967A1 (OSPEDALE SAN RAFFAELE S.R.L., priority 2018, published 2021):
“And” between values parts separate entries of the source, which are not always exact repeats. Equal entries are not always repeated. Where two headings read alike, the source gives them in different places.

Assay: Mouse PK studies (plasma and liver exposure)
Type: in vivo, C57BL/6 mice
Set-up: Liver [mM]: unit not given here
Settings: for Plasma concentrations / concentration at 24 h / concentration at 8 h / concentration at 0.25 h / concentration at 0.5 h / concentration at 1 h / concentration at 2 h / concentration at 4 h / concentration at 6 h: PO 100 mpk in 0.5% methocell; for AUC(0-t): read-out: AUC (0-24 h); for AUC: read-out: AUC Extrap
Text: C57BL/6 mice are used to evaluate plasma and liver exposure and pharmacokinetic parameters after intravenous and oral administration (from 2 to 200 mpk according to the compound tested and the administration route). 12 (+3 spare) healthy C57BL/6N male mice are obtained from Charles River S.p.A. Calco (Como), Italy. Animals are ordered weighing 21 to 27 grams and approximately 7 weeks old. Before and during testing, animals are housed in Individual Ventilated Cages (IVCs Tecniplast) with sawdust as bedding (three animals for cage). Cages are identified by a color code label recording the sample ID, animal number and details of treatment (route, dose and sex). Animals are identified by unique number on tail via permanent marker. Animal room controls are set to maintain temperature within the range from 20 to 24° C. and relative humidity within the range from 40 to 70% and an average daily airflow of at least 10 fresh air changes per hour. Actual conditions are recorded. The room is lit by fluorescent tubes controlled to give an artificial cycle of 12 hours light and 12 hours dark each day. All animals are weighed immediately before testing. Animals are dosed IV in a fed state and PO in a fasted state.
Compounds (from 0.4 to 20 mg/mL according to the compound tested and the administration route) are dissolved in DMSO/PEG400/H2O (20/60/20) for IV administration and 0.5% Methocel E50 or 20% Hydroxypropyl-β-cyclodextrin (HP-β-CD) in citrate buffer pH=5 for PO administration. The appropriate dose volume of the test item, calculated for each animal according to body weight (administration volume: 5 mL/kg for IV or 5 mL/kg or 10 mL/kg for PO), is administered by injection into lateral tail vein using 2.5 mL syringe (BD Plasipak) for IV administration and administered orally by gavage using 5 mL Syringe (BD Plastipak) for PO administration. Whole blood sample (about 0.200 mL) is collected via retro orbital sinus using Isoflurane as anesthetic. Blood is collected in Li-Heparin Sartsted® gel tubes appropriately labeled indicating animal number and time point. Tubes are put in wet ice and then centrifuged within 15 minutes from blood collection. Centrifugation is performed using a Heraeus Multifuge® 3S/3S-R set, at 2200×g for 10 minutes, internal temperature is kept at 4° C. After the centrifugation, about 100 μL of plasma samples are obtained and immediately transferred to 1.5 mL Eppendorf tubes and frozen at −20° C. (24/24 h alarmed). Whole blood samples are collected at different times point (0-0.25-0.5-1-2-4-6-8-24 hours) after dosing and kept frozen (−20° C.) until assayed by LC/MS/MS. Livers are explanted at different time point (0-8-24 hours), washed with saline solution, transferred to Eppendorf tubes and frozen at −80° C. until assayed by LC/MS/MS. Analytical procedures: Plasma samples are extracted using Liquid Handling Robot Hamilton StarPlus by protein precipitation with acetonitrile. Then the samples are centrifuged (3000 rpm×15 min at 4° C.) and the supernatant transferred and dried under nitrogen. The samples are reconstituted in water/acetonitrile 90/10 or 50/50 and then injected directly into an UPLC column. Sample analyses are performed using an API 4000 or/and API 5000 or/and API 4000QTrap Mass Spectrometer interfaced via the Turbo Ion Spray (ESI) to an LC system consisting of an Acquity UPLC Sample Manager autosampler and Acquity UPLC Binary Solvent Manager Pump. The results are calculated using Analyst Software linear regression with 1/x*x weighting. The Assay Precision is calculated for the Quality Controls by Watson Lims database.
Cmax is the maximum compound concentration from oral dosing; Tmax is the time at which Cmax is reached; AUC (0-24) is the area under the concentration vs time curve from 0 to 24 hours; AUC extrap is the area under the curve (AUC) extrapolated to infinity, from dosing time based on the last observed concentration. […]

[1] = male, C57BL/6N, mouse, plasma, po, 100 mg/kg, plasma, PO 100 mg/kg in 0.5% methocell, mice, Mean
[2] = male, C57BL/6N, mouse, plasma, po, 100 mg/kg, plasma, PO 100 mg/kg in 0.5% methocell, mice, individual subject
[3] = plasma, PO 100 mg/kg in 0.5% methocell, mice, individual subject, 100 mg/kg

Cc1cc(N)c(S(N)(=O)=O)cc1C(=O)Nc1cc(F)c(F)c(F)c1 [Example E17, 4-amino-2-methyl-5-sulfamoyl-N-(3,4,5-trifluorophenyl)benzamide]
Liver [mM] (PO 25 mg/kg in 0.5% methocell, mice): 317
Liver [mM] (PO 75 mg/kg in 0.5% methocell, mice): 747
Liver [mM] (PO 150 mg/kg in 0.5% methocell, mice): 677
Kp (male, C57BL/6N, mouse, liver, PO 25 mg/kg in 0.5% methocell, mice): 15.9
Kp (male, C57BL/6N, mouse, liver, PO 75 mg/kg in 0.5% methocell, mice): 14.4
Kp (male, C57BL/6N, mouse, liver, PO 150 mg/kg in 0.5% methocell, mice): 13.8

Nc1ccc(C(=O)Nc2cc(F)c(F)c(F)c2)cc1S(N)(=O)=O [Example E3, 4-amino-3-sulfamoyl-N-(3,4,5-trifluorophenyl)benzamide]
Plasma concentrations (0.25 Hours, individual subject, 100 mg/kg): 5.05 µM and 3.95 µM
Plasma concentrations (0.5 Hours, individual subject, 100 mg/kg): 7.23 µM and 10.6 µM
Plasma concentrations (1 Hours, individual subject, 100 mg/kg): 17.2 µM and 9.61 µM
Plasma concentrations (2 Hours, individual subject, 100 mg/kg): 10.7 µM and 17.0 µM
Plasma concentrations (4 Hours, individual subject, 100 mg/kg): 11.2 µM and 10.6 µM
Plasma concentrations (6 Hours, individual subject, 100 mg/kg): 10.5 µM and 9.06 µM
Plasma concentrations (8 Hours, individual subject, 100 mg/kg): 10.4 µM and 12.1 µM
concentration at 24 h (8 Hours, individual subject, 100 mg/kg, read-out: Liver concentrations): 125.87 µM and 119.96 µM
Plasma concentrations (24 Hours, individual subject, 100 mg/kg): 0.268 µM and 0.184 µM and 0.0502 µM
concentration at 24 h (24 Hours, individual subject, 100 mg/kg, read-out: Liver concentrations): 0.6272 µM and 3.0342 µM and 1.8500 µM
Kp at 8 h (male, C57BL/6N, mouse, liver, 100 mpk, 8 h after PO administration, read-out: liver levels higher than plasma (ratio liver/plasma concentration)): 13
concentration at 8 h (male, C57BL/6N, mouse, liver, po, 100 mg/kg, 8 Hours, Mean, read-out: Liver concentrations): 129 µM
concentration at 8 h (male, C57BL/6N, mouse, liver, po, 100 mg/kg, 8 Hours, individual subject, read-out: Liver concentrations): 143 µM
concentration at 24 h (male, C57BL/6N, mouse, liver, po, 100 mg/kg, 24 Hours, Mean, read-out: Liver concentrations): 2 µM
concentration at 0.25 h (male, C57BL/6N, mouse, plasma, po, 100 mg/kg, 0.25 Hours, Mean, read-out: Plasma concentrations): 5 µM
concentration at 0.25 h (male, C57BL/6N, mouse, plasma, po, 100 mg/kg, 0.25 Hours, individual subject, read-out: Plasma concentrations): 6.15 µM
concentration at 0.5 h (male, C57BL/6N, mouse, plasma, po, 100 mg/kg, 0.5 Hours, Mean, read-out: Plasma concentrations): 9 µM
concentration at 0.5 h (male, C57BL/6N, mouse, plasma, po, 100 mg/kg, 0.5 Hours, individual subject, read-out: Plasma concentrations): 7.77 µM
concentration at 1 h (male, C57BL/6N, mouse, plasma, po, 100 mg/kg, 1 Hours, Mean, read-out: Plasma concentrations): 12 µM
concentration at 1 h (male, C57BL/6N, mouse, plasma, po, 100 mg/kg, 1 Hours, individual subject, read-out: Plasma concentrations): 10.2 µM
concentration at 2 h (male, C57BL/6N, mouse, plasma, po, 100 mg/kg, 2 Hours, Mean, read-out: Plasma concentrations): 14 µM
concentration at 2 h (male, C57BL/6N, mouse, plasma, po, 100 mg/kg, 2 Hours, individual subject, read-out: Plasma concentrations): 13 µM
concentration at 4 h (male, C57BL/6N, mouse, plasma, po, 100 mg/kg, 4 Hours, Mean, read-out: Plasma concentrations): 11 µM
concentration at 4 h (male, C57BL/6N, mouse, plasma, po, 100 mg/kg, 4 Hours, individual subject, read-out: Plasma concentrations): 10.9 µM
concentration at 6 h (male, C57BL/6N, mouse, plasma, po, 100 mg/kg, 6 Hours, Mean, read-out: Plasma concentrations): 10 µM
concentration at 6 h (male, C57BL/6N, mouse, plasma, po, 100 mg/kg, 6 Hours, individual subject, read-out: Plasma concentrations): 11.9 µM
concentration at 8 h (male, C57BL/6N, mouse, plasma, po, 100 mg/kg, 8 Hours, Mean, read-out: Plasma concentrations): 10 µM
concentration at 8 h (male, C57BL/6N, mouse, plasma, po, 100 mg/kg, 8 Hours, individual subject, read-out: Plasma concentrations): 9.01 µM
concentration at 24 h (male, C57BL/6N, mouse, plasma, po, 100 mg/kg, 24 Hours, Mean, read-out: Plasma concentrations): 0.2 µM
Cmax (male, C57BL/6N, mouse, plasma, po, 100 mg/kg, PO 100 mg/kg in 0.5% methocell, mice, Mean): 16 µM
Cmax (male, C57BL/6N, mouse, plasma, po, 100 mg/kg, PO 100 mg/kg in 0.5% methocell, mice, individual subject): 17.2 µM
AUC(0-t) [1]: 172 µM·h
AUC [1]: 173 µM·h
Tmax (male, C57BL/6N, mouse, plasma, po, 100 mg/kg, plasma, PO 100 mg/kg in 0.5% methocell, mice, Mean, read-out: Tmax): 1.7 h
AUC(0-t) [2]: 171 µM·h
AUC [2]: 172 µM·h
Tmax (male, C57BL/6N, mouse, plasma, po, 100 mg/kg, plasma, PO 100 mg/kg in 0.5% methocell, mice, individual subject, read-out: Tmax): 1 h
clearance (male, C57BL/6N, mouse, plasma, mice, read-out: in vivo clearance): 10 mL/min/kg
AUC (0-24 h) [3]: 186 µM·h and 160 µM·h
AUC Extrap [3]: 186.4 µM·h and 161.7 µM·h
Cmax [3]: 17 µM and 13 µM
Tmax [3]: 2.00 h
